Source: patent publication US20050075393A1, “Carboxylic acid compound cyclopropane ring” (priority 2000, published 2005)

System: hippocampal neurotransmission (PS amplitude, dentate granule cells, perforant path stimulation)
Test: Population spike (PS) recording in dentate gyrus of anesthetized mice (LTP-like potentiation of synaptic transmission)
Format: in vivo
Conditions: mouse
Excerpt: For population spike (PS) recording, the head of a mouse was fixed with ear bars under urethane anesthesia (an initial dose of 1.2 g/kg, i.p. followed by supplemental injections of 0.2-0.6 g/kg as needed), and a glass recording electrode was placed in the cell body layer of dentate granule cells (coordinates=2.0-2.5 mm posterior to bregma, 1.0-1.5 mm lateral to the midline, 1.5-2.0 mm ventral to the brain surface). Initial responses were obtained using cathodal stimulation (7.0-9.0 V, 0.1 Hz, 0.1 ms in duration) of the perforant path. After both stimulating and recording electrodes were properly positioned and population spike was obtained, the baseline was allowed to stabilize for 30 min prior to baseline recording. Body temperature was maintained at 37° C. Compound A was dissolved in 50% polyethylene glycol, diluted with water, and injected intraperitoneally (i.p.) at concentrations of 0.1 mg/kg, 1 mg/kg and 10 mg/kg, respectively. After the intraperitoneal administration of Compound A, the PS amplitude was measured every 5 minutes, and the proportion in percentage of the obtained value to the PS amplitude at the time of the start of i.p. administration of Compound A (% of basal PS amplitude) was calculated.

CCCCCC1CC1CC1CC1CCCCCCCC(=O)O (stereo not drawn) [Compound A, 8-(2-((2-pentylcyclopropan-1-yl)methyl)cyclopropyl)octanoic acid]
time after injection at which potentiation of PS amplitude is still evident (1 mg/kg i.p.): ≥ 120 min
PS amplitude, percent of basal PS amplitude (1 mg/kg i.p., urethane anesthesia): approximately 200%
potentiation of PS amplitude (10 mg/kg i.p., compared with 1 mg/kg): much lesser potentiation
